What all share (format): in vivo
Assay [1] concerns green peach aphid (Myzus persicae). Put plainly: Myzus test (spray treatment), Chinese cabbage leaf sections. The note with it: for pest or weed control at 500 g/ha: Myzus persicae, 120 h, after 5 d, read-out: Death rate in % after 5 d; for activity after 5 days: 500 g/ha. As for the experimental part:
(§1) To prepare a suitable active compound preparation 1 part by weight of the active compound is mixed with the given amount of solvent and emulsifier and the concentrate is diluted to the desired concentration with water containing emulsifier.
Chinese cabbage leaf sections (Brassica pekinensis) infested with all stages of the green peach aphid (Myzus persicae) are sprayed with an active compound preparation at the desired concentration.
After the desired time the activity in % is determined. Here 100% means that all aphids were killed; 0% means that no aphids were killed.

Assay [2] has as its system cotton aphid (Aphis gossypii). Put plainly: Aphis gossypii test, immersion of cotton leaves. The note with it: 100 g/ha (so in the source), cotton leaves immersed. As for the experimental part:
as §1
Cotton plant leaves (Gossypium hirsutum) heavily infected with the cotton aphid (Aphis gossypii) are treated by immersing in the active compound preparation at the desired concentration. After the desired time the death rate in % is determined. Here 100% means that all aphids were killed; 0% means that no aphids were killed.

For assay [3], the system named is rice brown plant hopper (Nilaparvata lugens). As to the kind of experiment: Nilaparvata lugens test; hydroponic treatment (NILALU SYS). To be noted: 500 g/ha. As for the experimental part:
To prepare a suitable active compound preparation I part by weight of the active compound is mixed with the given amount of solvent and emulsifier and the concentrate is diluted to the desired concentration with water containing emulsifier.
The active compound preparation is pipetted into water. […] Infection is then carried out with rice brown plant hopper (Nilaparvata lugens).
After the desired time the activity in % is determined. Here 100% means that all plant hoppers were killed; 0% means that no plant hoppers were killed.

Another assay deals with Lucilia cuprina larvae. Put plainly: Fly larvae test. The note with it: 100 ppm. As for the experimental part: 10 mg active compound were dissolved in 0.5 ml dimethylsulphoxide. To prepare a suitable formulation the active compound solution is diluted with water to the respective desired concentration.
About 20 Lucilia cuprina larvae are placed in a test tube that contains ca. 1 cm^3 horse flesh and 0.5 ml of the active compound preparation under test.
After the desired time the death rate in % is determined. Here 100% means that all larvae were killed; 0% means that no larvae were killed.

Assay [4] has as its system caterpillars of the fall army worm (Spodoptera frugiperda). As to the kind of experiment: Spodoptera frugiperda test (spray treatment). The note with it: 500 g/ha. As for the experimental part: as §1
Maize leaf sections (Zea mays) are sprayed with an active compound preparation at the desired concentration and after drying treated with caterpillars of the fall army worm (Spodoptera frugiperda).
After the desired time the activity in % is determined. Here 100% means that all caterpillars were killed; 0% means that no caterpillars were killed.

Assay [5] relates to eggs of the cotton boll worm (Heliotis virescens). As to the kind of experiment: Heliothis virescens test (spray treatment). To be noted: 500 g/ha, spray on soy bean leaves. As for the experimental part: as §1
Soy bean leaves (Glycine max.) are sprayed with an active compound preparation at the desired concentration and after drying were infected with eggs of the cotton boll worm (Heliotis virescens).
After the desired time the activity in % is determined. Here 100% means that all eggs were killed; 0% means that no eggs were killed.

The test system of assay [6] is green peach aphid (Myzus persicae). As to the kind of experiment: Myzus persicae test (hydroponic treatment). To be noted: pea plant; for activity after 7 days: 20 ppm. As for the experimental part: To prepare a suitable active compound preparation 1 part by weight of the active compound is mixed with the given amount of solvent and emulsifier and the concentrate is diluted to the desired concentration with water.
The active compound preparation is mixed with water. The concentration given refers to the amount of active compound per unit volume water (mg/l=ppm). The treated water is placed into a vessel with one pea plant (Pisum sativum). After the prescribed time infection with the green peach aphid (Myzus persicae) is carried out.
After the desired time the death rate in % is determined. Here 100% means that all aphids were killed; 0% means that no aphids were killed.

Assay [7] concerns eggs of the diamond back moth (Plutella xylostella). Put plainly: Plutella test, artificial diet. The note with it: 1000 g/ha (so in the source), on artificial diet. As for the experimental part: To prepare a suitable active compound preparation 1 part by weight active compound was mixed with the given amount of solvent and the concentrate was diluted to the desired concentration with methanol.
A given amount of active compound preparation at the desired concentration is pipetted onto a standardised amount of artificial diet. After the methanol has evaporated ca. 200-300 eggs of the diamond back moth (Plutella xylostella) are added to the diet.
After the desired time the death rate of the eggs and larvae, respectively, in % is determined. Here 100% means that all animals were killed; 0% means that no animals were killed.

For assay [8], the system named is adult engorged females of Boophilus microplus (strain Parkhurst-SP resistant). As to the kind of experiment: Test with resistant monoxenous cattle ticks/SP-resistant Parkhurst strain, injection method. To be noted: 20 μg/animal injected into the abdomen. As for the experimental part: 10 mg of the active compound are dissolved in 0.5 ml dimethylsulphoxide, lower concentrations are prepared by dilution with the same solvent.
The test is carried out five times. 1 μl is injected into the abdomen, the animals are transferred into dishes and stored in an air-conditioned room. The control of activity is carried out on a deposit of fertile eggs after 7 days. Eggs, the fertility of which was not visible externally, were stored in glass tubes in an incubator until larvae hatch after about 24 days. An activity of 100% means that no ticks laid fertile eggs.

In assay [9] the test system is larvae of the mustard leaf beetle (Phaedon cochleariae). As to the kind of experiment: Phaedon cochleariae test (spray treatment). To be noted: 500 g/ha. As for the experimental part: [table] To prepare a suitable active compound preparation 1 part by weight of the active compound is mixed with the given amount of solvent and emulsifier and the concentrate is diluted to the desired concentration with water containing emulsifier. Chinese cabbage leaf sections (Brassica pekinensis) are sprayed with an active compound preparation at the desired concentration and after drying are infected with larvae of the mustard leaf beetle (Phaedon cochleariae). After the desired time the activity in % is determined.

The results in this text go back to US20080280953A1, “Agents Used for the Treatment of Seeds” (Bayer Cropscience AG, priority 2004, published 2008).

Molecules are shown by their SMILES.

With `CC1OC(=O)C=C1N(C)Cc1ccc(Cl)nc1` (stereo not drawn), the pest or weed control at 500 g/ha in assay [1] stood at 100%.

Take `CN(Cc1ccc(Cl)nc1)C1=CC(=O)CCC1`: the pest or weed control at 500 g/ha in [1] worked out at 90%.

Turning to `O=C1C=C(N(Cc2ccc(Cl)nc2)C2CC2)CC1`, the pest or weed control at 500 g/ha in assay [1] stood at 100%.

For the compound `CN(Cc1ccc(Cl)cn1)C1=CC(=O)CC1`, the “Death rate in % after 6 d” value in [2] was 95%.

On to `O=C1C=C(NCc2ccc(Cl)nc2)CCC1` [Compound 1], for which the “activity after 7 days” value in [3] was 100%. Further, the “activity after 5 days” value in assay [1] is given as 100%.

Consider `CCCN(Cc1ccc(Cl)nc1)C1=CC(=O)CCC1` [Compound 4], for which the “activity after 5 days” value in assay [1] was found to be 100%.

In the case of `C=CCN(Cc1ccc(Cl)nc1)C1=CC(=O)CCC1` [Compound 9], in [1], the “activity after 5 days” value is reported as 100%.

As for `C#CCN(Cc1ccc(Cl)nc1)C1=CC(=O)CCC1` [Compound 10], the “activity after 5 days” value in assay [1] worked out at 100%.

Regarding `Cn1c(NCc2ccc(Cl)nc2)cc(=O)n(C)c1=O` [Compound 70], in assay [1], the “activity after 5 days” value worked out at 100%.

Regarding `CCN(Cc1ccc(Cl)nc1)C1=CC(=O)OC1` [Compound 85], the “death rate after 2 days” value in the assay with Lucilia cuprina larvae came out at 100%. Also, the “Death rate in % after 7 d” value was determined as 100% in [4] (spray on maize leaf sections, after 7 d) and 100% in [5].

As for `C=CCN(Cc1ccc(Cl)nc1)C1=CC(=O)OC1` [Compound 91], in [6] (20 g/ha (so in the source), after 7 d), the “Death rate in % after 7 d” value was found to be 100%.

Consider `C#CCN(Cc1ccc(Cl)nc1)C1=CC(=O)OC1` [Compound 92], for which the “activity after 5 days” value in assay [1] worked out at 100%.

With `CC(=O)N(Cc1ccc(Cl)nc1)C1=CC(=O)OC1` [Compound 94], in assay [1], the “activity after 5 days” value was determined as 100%.

As to `CON(Cc1ccc(Cl)nc1)C1=CC(=O)OC1` [Compound 98], the “death rate after 2 days” value with Lucilia cuprina larvae is 100%. Also, in assay [6], the “activity after 7 days” value is listed as 100%. Moreover, the “activity after 5 days” value in assay [1] is 100%.

`CN(Cc1ccc(Cl)nc1)C1=C(F)C(=O)OC1` [Compound 104]: the “death rate after 2 days” value with Lucilia cuprina larvae amounted to 100%.

As to `CN(Cc1ccc(Cl)nc1)C1=CC(=O)SC1` [Compound 112], in assay [7], the “Death rate in % after 7 d” value is reported as 100%.

`CN(Cc1ccc(Br)nc1)C1=CC(=O)OC1` [Compound 121]: in the assay on Lucilia cuprina larvae, the “death rate after 2 days” value was found to be 100%. The “activity after 7 days” value in assay [4] (spray, after 7 days) is 100%; in assay [6] it was 100%. Besides, the “activity (no fertile eggs laid)” value in assay [8] was 95%. Moreover, in assay [1], the “activity after 5 days” value is 100%.

Turning to `O=C1C=C(N(Cc2ccc(F)nc2)C2CC2)CO1` [Compound 124], the “activity after 5 days” value in assay [1] came out at 100%.

`CN(Cc1ccc(C(F)(F)F)nc1)C1=CC(=O)OC1` [Compound 125]: in the assay on Lucilia cuprina larvae, the “death rate after 2 days” value is listed as 90%. For the same compound, the “activity after 7 days” value in assay [6] is 100%. Also, the “activity (no fertile eggs laid)” value in [8] is 80%. In addition, the “activity after 5 days” value in assay [1] is listed as 100%.

For the compound `O=C1C=C(N(Cc2ccc(C(F)(F)F)nc2)C2CC2)CO1` [Compound 126], in [1], the “activity after 5 days” value is reported as 100%.

As for `CN(Cc1cnc(Cl)s1)C1=CC(=O)OC1` [Compound 144], in assay [5], the “Death rate in % after 7 d” value came to 99%.

As for `CN(Cc1cccnc1)C1=CC(=O)OC1` [Compound 147], the “activity after 5 days” value in assay [1] is listed as 100%.

As to `CN(Cc1ccc(Cl)nc1)C1=CC(=O)CC1` [Compound 175], in the assay with Lucilia cuprina larvae, the “death rate after 2 days” value is 100%.

In the case of `CN(Cc1ccc(Cl)nc1)C1=CC(=O)OC1` [drawing 472], in assay [1], the pest or weed control at 500 g/ha was found to be 100%.

On to `CCN(Cc1ccc(Cl)nc1)C1=CC(=O)OC1` [drawing 473], for which, in assay [1], the pest or weed control at 500 g/ha is 90%.

Take `CN(Cc1cnc(Cl)s1)C1=CC(=O)OC1` [drawing 474]: the pest or weed control at 500 g/ha in assay [1] was 100%.

With `O=C1C=C(NCc2ccc(Cl)nc2)CO1` [drawing 475], the pest or weed control at 500 g/ha in assay [1] came out at 90%.

With `CN(Cc1ccc(Cl)nc1)C1=C(F)C(=O)OC1` [drawing 477], the pest or weed control at 500 g/ha in assay [1] worked out at 100%.

With `O=C1C=C(N(Cc2ccc(Cl)nc2)C2CC2)CO1` [drawing 478], the pest or weed control at 500 g/ha in assay [1] was 100%.

On to `C=CCN(Cc1ccc(Cl)nc1)C1=CC(=O)OC1` [drawing 479], for which, in assay [1], the pest or weed control at 500 g/ha was 100%.

For the compound `CN(Cc1ccc(Cl)nc1)C1=CC(=O)CC1` [drawing 481], in assay [1], the pest or weed control at 500 g/ha turned out to be 100%.

`CN(Cc1ccc(Cl)nc1)C1=CC(=O)SC1` [drawing 483]: the pest or weed control at 500 g/ha in [1] was determined as 80%.

As to `CN(Cc1ccc(Cl)nc1)C1=CC(=O)OC1` [drawing 484], the “Death rate in % after 7 d” value in assay [9] stood at 100%.

On to `CCN(Cc1ccc(Cl)nc1)C1=CC(=O)OC1` [drawing 485], for which the “Death rate in % after 7 d” value in assay [9] is 100%.

As for `O=C1C=C(N(Cc2ccc(Cl)nc2)C2CC2)CO1` [drawing 486], in assay [9], the “Death rate in % after 7 d” value was determined as 100%.

In the case of `C=CCN(Cc1ccc(Cl)nc1)C1=CC(=O)OC1` [drawing 487], in assay [9], the “Death rate in % after 7 d” value is on record as 67%.

As to `CN(Cc1ccc(Cl)nc1)C1=CC(=O)OC1` [drawing 493], the “Death rate in % after 6 d” value in assay [2] was 100%.

In the case of `O=C1C=C(NCc2ccc(Cl)nc2)CO1` [drawing 494], in assay [2], the “Death rate in % after 6 d” value was determined as 98%.

Regarding `C=CCN(Cc1ccc(Cl)nc1)C1=CC(=O)OC1` [drawing 495], in [2], the “Death rate in % after 6 d” value worked out at 95%.
